{
  "source": "patent US12667584B2",
  "about": "“Adenosine analog and its use in regulating the circadian clock” (NATIONAL INSTITUTE OF BIOLOGICAL SCIENCES, BEIJING, priority 2017, dated 2026)",
  "key": {"[1]": {"tested_on": "core clock genes", "experiment": "qPCR of pre-mRNA of core clock genes in liver", "format": "in vivo, mouse", "settings": "15 mg/kg, 1 h after treatment", "protocol": "Total RNA Extraction and pre-mRNA Analysis: Total RNA from liver was extracted 1 h after treatment of either DMSO or 15 mg/kg bw with QIAGEN Rneasy Mini Kit (74104, Qiagen), then digested with RNase-Free DNase Set (79254, Qiagen) to remove DNA residual. 500 ng total was reverse transcripted into cDNA with PrimeScript™ RT Master Mix (Takara, RR036A). To compare pre-mRNA levels, equal amount of cDNA RNA from DMSO and CA03 treated samples were analyzed using SYBR Green Master Mix (Kapa Biosystems, KP-KK4601) on a BioRad CFX96 instrument. Each gene was analyzed with multiple primers across the whole gene, and the amplification products were either intronic or across an intron-exon junction. Only primers with good melt-curve were used. For quantification, gene expression in DMSO treated sample was used as control, the relative genes expression in CA03 treated sample calculated by the comparative Ct Method.\nNext, the inventors sought to determine whether the clock effects of cordycepin can be recaptured in vivo. […] Mice were intraperitoneally (i.p.) injected with the cordycepin at ZT4 (ZT, zeitgeber time; ZT0 starts light-on, and ZT12 begins light-off). […] This observation is especially true when nascent RNA levels were measured, highlighting the first-order, inductive response in E-box genes as previously proposed(FIG. 2B). […]"}, "[2]": {"tested_on": "C57BL/6j mice", "experiment": "Wheel running jet-lag experiment, 8 h phase advance or delay", "format": "in vivo, mouse", "protocol": "Wheel running experiment: Male C57Bj/6 mice at 7 w old were purchased from the Nanjing Biomedical Research Institute of Nanjing University introduced from Jackson Laboratory, housed in individually wheel-running cage in a temperature- and humidity-controlled SPF facility, with ad libitum access to food and water. The animals were entrained under 12 h light/dark photoperiod for two weeks to synchronize the endogenous circadian clock of the mice to the ambient light-dark cycle, light intensity is about 50˜100 lux. After synchronization, light-dark cycles were 8-hr phase-advanced or phase-delayed. On the day of light-dark cycle was shifted advance, mice were firstly fasted at CT 3, then 15 mg/kg bw CA03, 15 and 30 mg/kg bw pro-CA03, 15 and 30 mg/kg bw pro-CA04 or DMSO were intraperitoneal injection at CT 12, and light on time (CT 0) was shifted from 7 am to 11 pm), finally re-feed and inject drug again at CT 23 of the old light-dark cycle. CA03 and pro-CA04 were firstly dissolved in DMSO to the concentration of 200 μg/μl, then dilute with saline to the final concentration of 1000 μg/ml for intraperitoneal injection. Pro-03 was firstly dissolved in DMSO to the concentration of 200 μg/μl, then dilute with 2% tween80 (in sterilized water) to the final concentration of 1000 μg/ml for intraperitoneal injection. On the day of light-dark cycle was shifted delayed, mice were firstly fasted at ZT 3, then 15 mg/kg bw CA03, 15 and 30 mg/kg bw pro-CA03, 15 and 30 mg/kg bw pro-CA04 or DMSO were intraperitoneal injection at CT 12, and light off time (CT12) was shifted from […] to 3 am), finally re-feed and inject drug again at CT 23 of the old light-dark cycle. Locomotor activity was recorded in 10-min bins wheel running (Actimetrics), and the data obtained were analysed with Clocklab software (Actimetrics). All animal experimental procedures were performed in accordance with the protocol approved by the Institutional Animal Care and Usage Committee (IACUC) of the National Institute of Biological Sciences, Beijing.\nUnder a standard jet-lag protocol {Yamaguchi, 2013}, wild-type C57BL/6j mice usually take ˜10 d to adapt to 8 h phase advance. […] Similarly, the drug treated mice adapt faster to the phase delay (FIG. 2D&2E).\nTo test whether cordycepin function in vivo, we firstly tested luciferase signal level by live imaging of Per2:LUC mice after intraperitoneal injection of 15 mg/kg cordycepin or DMSO. We found cordycepin induce more than 4 folds increase of luciferase signal in liver when compared with DMSO control (A). […] We also reconfirmed endogenous transcription rate of core clock genes by measuring the pre-mRNA with qPCR in the liver (B). We examined RRE genes (including Bmal1, Clock, Npas2, Cry1 and Nfil3), internal control genes (including Gapdh, Tbp and Actin) and E-box genes (including Per1, Per2, Dbp and Nr1d1). We designed at least 2 primers for each gene. […] Prior evaluation the jet-leg cure ability of cordycepin, we detected whether cordycepin and it's prodrug pro-CA03 can penetrate BBB. We injected cordycepin or pro-CA03 via tail vein and time course sampled CSF and analyzed cordycepin pro-CA03 level with HPLC-MASS method. […] Finally we evaluated the jet-leg cure ability of cordycepin, pro-CA03 and Pro-CA04 with mice behavioral experiment. Wild-type C57BL/6j mice typically take ˜10 days to adapt to an 8 h phase advance. […]"}},
  "data": [
    {"smiles": "Nc1ncnc2c1ncn2[C@@H]1O[C@H](CO)C[C@H]1O", "note": "[Cordycepin, 3′-deoxy-adenosine]", "values": [
      {"measurement": "E-box gene transcription (pre-mRNA, liver)", "setting": "[1]", "value": "activate"},
      {"measurement": "RRE gene and internal control gene transcription (pre-mRNA, liver)", "setting": "[1]", "value": "repress"},
      {"measurement": "adaptation time in phase-delay assay", "setting": "[2]; DMSO 6 days", "value": 3, "unit": "days"},
      {"measurement": "adaptation time to 8 h phase advance", "setting": "[2]; twice injection, DMSO ~10 d", "value": 4, "unit": "days"}
    ]}
  ]
}
